Columns and labels:
[1] = test system: BALF proteases (prolyl endopeptidase activity); assay: IQFP protease substrate profiling of BALF from infected and uninfected guinea pigs (Table 1); format: biochemical, guinea pig; details: for FI infected / Fold infected: infected guinea pig BALF; for Fold enhancement: infected vs uninfected guinea pig BALF; for FI uninfected / Fold uninfected: uninfected guinea pig BALF
Excerpt: Methods: The substrate specificity of AF in vitro culture supernatant was profiled with a combinatorial IQFP library in comparison with human serum to identify fungus-specific substrates. An established guinea pig model of IA was used to collect BALF during active disease for in vivo protease substrate profiling.
(§1) Methods: Guinea pig inhalation model comprises neutropenia by cortisone acetate and cyclophosphamide (days −2 and +3), 1.2×10^8 conidia/mL nebulized AF in inhalation chamber, and serum and BALF obtained at predetermined time points; Vallor et al. Antimicrob. Ag. Chemother. 2008, 52.

[2] = test system: Aspergillus fumigatus infected and uninfected guinea pig broncheoaveolar lavage fluid; assay: Screening probes against Aspergillus fumigatus infected and uninfected guinea pig BALF (Table 2); format: biochemical
Excerpt: as §1
Table 2 Legend. Variable region (Xaa—Yaa—Zaa) of the top 6 peptide probes are all listed in single amino acid code; AF293 and CEA10 are the two strains of Aspergillus fumigatus infected guinea pig BALF samples screened in this study.
N stands for number of guinea pig BALF samples screened against the given peptide probe. Guinea pig infected and uninfected samples with very low background (t=0 hour) and end point values (t=6 hour) (i.e., no greater than 100 units difference between t=0 hour and t=6 hour) were not selected for the statistical calculations.
Mean fold change values is the average of fluorescence fold change calculated for each guinea pig sample screened against respective peptide probe. Fluorescence fold change values are calculated according to the formula:
Fold Change=Fluorescence measured at time t=6 hour/Fluorescence measured at time t=0 hour.
* Fold change values for these peptide probes were calculated at time t=3 hour as the end point value.
SD corresponds to standard deviation calculated for the given probe screened against the respective BALF sample.
Percentage fluorescence efficiency (% FE) is calculated for each probe as follows, % FE=100 * [(Fold changeInfected BALF-Fold changeUninfected BALF)/Fold changeuninfected BALF] Fold change values are all the mean fold change values.
P values are calculated with two tailed student t-test with two sample unequal variance for each peptide probe screened against respective infected and uninfected BALF samples. […]

[3] = strain AF293, t=6 hour vs t=0 hour
[4] = strain AF293 series, t=6 hour vs t=0 hour
[5] = strain CEA10, t=6 hour vs t=0 hour
[6] = strain CEA10 series, t=6 hour vs t=0 hour
[7] = strain AF293, end point t=3 hour
[8] = strain AF293, end point t=3 hour vs t=0 hour
[9] = strain AF293 series, end point t=3 hour vs t=0 hour
[10] = strain CEA10, end point t=3 hour
[11] = strain CEA10, end point t=3 hour vs t=0 hour
[12] = strain CEA10 series, end point t=3 hour vs t=0 hour

Row | Substance | FI infected [1] | Fold infected [1] | Fold enhancement [1] | FI uninfected [1] | Fold uninfected [1] | further results
1 | MeOCGly-G-G-P-A/V-N/Q-G-G-Dap(Dnp)-K-K | 325 | 2.18 | 2.13 | 188 | 1.02 | 
2 | MeOCGly-G-G-P-A/V-P-G-G-Dap(Dnp)-K-K | 488 | 2.85 | 2.62 | 234 | 1.09 | 
3 | MeOCGly-G-G-P-D/E-K/R-G-G-Dap(Dnp)-K-K | 161 | 1.64 | 2.02 | 118 | 0.81 | 
4 | MeOCGly-G-G-P-D/E-P-G-G-Dap(Dnp)-K-K | 349 | 2.3 | 2.31 | 213 | 1 | 
5 | MeOCGly-G-G-P-F/Y-A/V-G-G-Dap(Dnp)-K-K | 493 | 3.06 | 2.04 | 294 | 1.5 | 
6 | MeOCGly-G-G-P-F/Y-K/R-G-G-Dap(Dnp)-K-K | 238 | 2.09 | 2.06 | 151 | 1.01 | 
7 | MeOCGly-G-G-P-F/Y-N/Q-G-G-Dap(Dnp)-K-K | 286 | 2.8 | 2.15 | 154 | 1.31 | 
8 | MeOCGly-G-G-P-F/Y-P-G-G-Dap(Dnp)-K-K | 424 | 4.71 | 4.07 | 124 | 1.16 | 
9 | MeOCGly-G-G-P-I/L-P-G-G-Dap(Dnp)-K-K | 474 | 2.74 | 2.21 | 223 | 1.24 | 
10 | MeOCGly-G-G-P-K/R-P-G-G-Dap(Dnp)-K-K | 498 | 2.88 | 2.37 | 213 | 1.22 | 
11 | MeOCGly-G-G-P-N/Q-A/V-G-G-Dap(Dnp)-K-K | 394 | 4.02 | 3.33 | 151 | 1.21 | 
12 | MeOCGly-G-G-P-N/Q-P-G-G-Dap(Dnp)-K-K | 598 | 3.93 | 2.76 | 261 | 1.43 | 
13 | MeOCGly-G-G-P-S/T-A/V-G-G-Dap(Dnp)-K-K | 467 | 4.28 | 2.39 | 176 | 1.8 | 
14 | MeOCGly-G-G-P-S/T-F/Y-G-G-Dap(Dnp)-K-K | 397 | 3.31 | 3.08 | 146 | 1.07 | 
15 | MeOCGly-G-G-P-S/T-P-G-G-Dap(Dnp)-K-K | 665 | 3.63 | 2.81 | 277 | 1.29 | 
16 | MeOCGly-GGPFPGG Dap(DNP)KK-NH2 |  |  |  |  |  | % FE (percentage fluorescence efficiency) ([2]; strain AF293, t=6 hour): 227.09%; Mean Fold change, Infected BALF [2, 3]: 6.58; Mean Fold Change, Uninfected BALF [2, 4]: 2.01; % FE (percentage fluorescence efficiency) ([2]; strain CEA10, t=6 hour): 326.24%; Mean Fold change, Infected BALF [2, 5]: 12.44; Mean Fold Change, Uninfected BALF [2, 6]: 2.92
17 | MeOCGly-GGPHPGG Dap(DNP)KK-NH2 |  |  |  |  |  | % FE (percentage fluorescence efficiency) ([2]; strain AF293, t=6 hour): 219.69%; Mean Fold change, Infected BALF [2, 3]: 4.47; Mean Fold Change, Uninfected BALF [2, 4]: 1.40; % FE (percentage fluorescence efficiency) ([2]; strain CEA10, t=6 hour): 217.59%; Mean Fold change, Infected BALF [2, 5]: 10.61; Mean Fold Change, Uninfected BALF [2, 6]: 3.34
18 | MeOCGly-GGPNPGG Dap(DNP)KK-NH2 |  |  |  |  |  | % FE (percentage fluorescence efficiency) [2, 7]: 274.00%; Mean Fold change, Infected BALF [2, 8]: 5.68; Mean Fold Change, Uninfected BALF [2, 9]: 1.52; % FE (percentage fluorescence efficiency) [2, 10]: 252.39%; Mean Fold change, Infected BALF [2, 11]: 13.68; Mean Fold Change, Uninfected BALF [2, 12]: 3.88
19 | MeOCGly-GGPNPNPGG Dap(DNP)KK-NH2 |  |  |  |  |  | % FE (percentage fluorescence efficiency) ([2]; strain AF293, t=6 hour): 355.02%; Mean Fold change, Infected BALF [2, 3]: 13.47; Mean Fold Change, Uninfected BALF [2, 4]: 2.96; % FE (percentage fluorescence efficiency) ([2]; strain CEA10, t=6 hour): 111.20%; Mean Fold change, Infected BALF [2, 5]: 8.72; Mean Fold Change, Uninfected BALF [2, 6]: 4.13
20 | MeOCGly-GGPSPGG Dap(DNP)KK-NH2 |  |  |  |  |  | % FE (percentage fluorescence efficiency) ([2]; strain AF293, t=6 hour): 309.39%; Mean Fold change, Infected BALF [2, 3]: 12.49; Mean Fold Change, Uninfected BALF [2, 4]: 3.05; % FE (percentage fluorescence efficiency) ([2]; strain CEA10, t=6 hour): 142.55%; Mean Fold change, Infected BALF [2, 5]: 11.00; Mean Fold Change, Uninfected BALF [2, 6]: 4.54
21 | MeOCGly-GGPYPGG Dap(DNP)KK-NH2 |  |  |  |  |  | % FE (percentage fluorescence efficiency) [2, 7]: 203.00%; Mean Fold change, Infected BALF [2, 8]: 5.42; Mean Fold Change, Uninfected BALF [2, 9]: 1.79; % FE (percentage fluorescence efficiency) [2, 10]: 310.44%; Mean Fold change, Infected BALF [2, 11]: 14.62; Mean Fold Change, Uninfected BALF [2, 12]: 3.56
